The nature of this series: Solubility of the precursor in chloroform, toluene and THF (solution left to stand, precipitation observed). It counts as physicochemical. As to conditions: for Solubility: toluene, THF, 1% or 5% by mass, left to stand 12 hours at room temperature. As to the method:
Precursor 1 synthesized in Example 1 was dissolved respectively in chloroform, toluene and THF so as to be contained therein in concentrations of 1.0% by mass and 5.0% by mass, and then passed through a filter so as to prepare each solution.
The evaluation criteria of the solubility in Table 1 are as follows:
A: No precipitation of a solute was observed when a precursor was dissolved in each solution so as to be contained in a concentration of 5% by mass, and then left to stand for 12 hours at a room temperature.
B: No precipitation of a solute was observed when a precursor was dissolved in each solution so as to be contained in a concentration of 1% by mass, and then left to stand for 12 hours at a room temperature.
C: Precipitation of a solute was observed when a precursor was dissolved in each solution so as to be contained in a concentration of 1% by mass, and then left to stand for 12 hours at a room temperature.

Molecules are shown by their SMILES.

For `CCCCCCCCc1ccc2c(c1)sc1c3ccc(CCCCCCCC)cc3sc21` [Comparative Example 2, 2,7-dioctyl[1]benzothieno[3,2-b][1]benzothiophene, reference compound], the Solubility result is “B (No precipitation of a solute was observed when a precursor was dissolved in each solution so as to be contained in a concentration of 1% by mass, and then left to stand for 12 hours at a room temperature.)”.
Regarding `CCCCCCC(CCCC)C(=O)OC(CC)c1ccc(-c2ccc(-c3ccc4c(c3)sc3c5ccc(-c6ccc(-c7ccc(C(CC)OC(=O)C(CCCC)CCCCCC)s7)s6)cc5sc43)s2)s1` (stereo not shown) [Example 15], the Solubility entry was “A (No precipitation of a solute was observed when a precursor was dissolved in each solution so as to be contained in a concentration of 5% by mass, and then left to stand for 12 hours at a room temperature.)”.
Same read-out and setting: in the case of `c1ccc(-c2ccc3c(c2)sc2c4ccc(-c5ccccc5)cc4sc32)cc1` [Comparative Example 1, 2,7-diphenyl [1]benzothieno[3,2-b][1]benzothiophene, reference compound] it was “C (Precipitation of a solute was observed when a precursor was dissolved in each solution so as to be contained in a concentration of 1% by mass, and then left to stand for 12 hours at a room temperature.)”.
For the compound `CCCCCCC(CCCC)C(=O)OC(CC)c1ccc(-c2ccc3c(c2)sc2c4ccc(-c5ccc(C(CC)OC(=O)C(CCCC)CCCCCC)s5)cc4sc32)s1` (stereo not shown) [Example 13], the Solubility entry was “A (No precipitation of a solute was observed when a precursor was dissolved in each solution so as to be contained in a concentration of 5% by mass, and then left to stand for 12 hours at a room temperature.)”. In addition, the “solute separation from solution” value (toluene and THF, 1.0% by mass and 5.0% by mass, filtered, left to stand over night at room temperature) is “solute separation was not observed at all in any solvent and concentration”.
Turning to `CCCCSC(=S)OC(CC)c1ccc(-c2ccc3c(c2)sc2c4ccc(-c5ccc(C(CC)OC(=S)SCCCC)s5)cc4sc32)s1` (stereo not shown) [Example 16], the Solubility result is “A (No precipitation of a solute was observed when a precursor was dissolved in each solution so as to be contained in a concentration of 5% by mass, and then left to stand for 12 hours at a room temperature.)”.
The same measure, in the same setting: in the case of `CCCCCCC(CCCC)C(=O)OC(CC)c1ccc(-c2ccc3c(c2)sc2c4ccc(-c5ccc(C(CC)OC(=O)C(CCCC)CCCCCC)cc5)cc4sc32)cc1` (stereo not shown) [Example 14] it was “A (No precipitation of a solute was observed when a precursor was dissolved in each solution so as to be contained in a concentration of 5% by mass, and then left to stand for 12 hours at a room temperature.)”.

Values taken from patent US8440713B2, “[1]benzothieno[3,2-B][1]benzothiophene compound and method for producing the same, and organic electronic device using the same” (Ricoh Company, Ltd., priority 2008, dated 2013).
